{
  "source": "the supplement of paper PMC10307832",
  "test_in_all_cases": "relative viability (nuclei count vs DMSO), 5 days (fraction); higher = more cells survive",
  "key": {"NCI-H3122": {"tested_on": "NCI-H3122", "outline": "(§1)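 Five library-drug doses in √10 steps were combined with a fixed anchor-drug dose, or a single drug was given alone, by pin tool to lung cancer cell lines in 1536-well plates the day after seeding. Nuclei were stained and counted after 5 days. Relative viability is the nuclei count in treated wells over that in vehicle wells, taken as the median of duplicate plates.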"}, "UMC-11": {"tested_on": "UMC-11", "outline": "as §1"}, "LXF-289": {"tested_on": "LXF-289", "outline": "as §1"}, "EMC-BAC-2": {"tested_on": "EMC-BAC-2", "outline": "as §1"}, "COR-L 105": {"tested_on": "COR-L 105", "outline": "as §1"}, "NCI-H322M": {"tested_on": "NCI-H322M", "outline": "as §1"}, "NCI-H1915": {"tested_on": "NCI-H1915", "outline": "as §1"}, "NCI-H2085": {"tested_on": "NCI-H2085", "outline": "as §1"}, "NCI-H441": {"tested_on": "NCI-H441", "outline": "as §1"}, "NCI-H1666": {"tested_on": "NCI-H1666", "outline": "as §1"}, "CAL-12T": {"tested_on": "CAL-12T", "outline": "as §1"}},
  "data": [
    {"smiles": "Nc1ccn([C@@H]2O[C@H](CO)[C@@H](O)[C@@H]2O)c(=O)n1", "note": "[Cytarabine] + CC(=O)Nc1cccc(-n2c(=O)n(C3CC3)c(=O)c3c(Nc4ccc(I)cc4F)n(C)c(=O)c(C)c32)c1 [Trametinib] (partner 0.02 µM)", "values": [
      {"measurement": "relative viability", "setting": "NCI-H3122; first compound 0.05 µM", "value": 0.187},
      {"measurement": "relative viability", "setting": "NCI-H3122; first compound 0.1581 µM", "value": 0.177},
      {"measurement": "relative viability", "setting": "NCI-H3122; first compound 0.5 µM", "value": 0.139},
      {"measurement": "relative viability", "setting": "UMC-11; first compound 0.005 µM", "value": 0.487},
      {"measurement": "relative viability", "setting": "UMC-11; first compound 0.01581 µM", "value": 0.424},
      {"measurement": "relative viability", "setting": "UMC-11; first compound 0.05 µM", "value": 0.373},
      {"measurement": "relative viability", "setting": "UMC-11; first compound 0.1581 µM", "value": 0.216},
      {"measurement": "relative viability", "setting": "UMC-11; first compound 0.5 µM", "value": 0.183},
      {"measurement": "relative viability", "setting": "LXF-289; first compound 0.005 µM", "value": 0.632},
      {"measurement": "relative viability", "setting": "LXF-289; first compound 0.01581 µM", "value": 0.573},
      {"measurement": "relative viability", "setting": "LXF-289; first compound 0.05 µM", "value": 0.62},
      {"measurement": "relative viability", "setting": "LXF-289; first compound 0.1581 µM", "value": 0.428},
      {"measurement": "relative viability", "setting": "LXF-289; first compound 0.5 µM", "value": 0.287},
      {"measurement": "relative viability", "setting": "EMC-BAC-2; first compound 0.005 µM", "value": 0.972},
      {"measurement": "relative viability", "setting": "EMC-BAC-2; first compound 0.01581 µM", "value": 0.902},
      {"measurement": "relative viability", "setting": "EMC-BAC-2; first compound 0.05 µM", "value": 0.842},
      {"measurement": "relative viability", "setting": "EMC-BAC-2; first compound 0.1581 µM", "value": 0.497},
      {"measurement": "relative viability", "setting": "EMC-BAC-2; first compound 0.5 µM", "value": 0.427},
      {"measurement": "relative viability", "setting": "COR-L 105; first compound 0.005 µM", "value": 0.435},
      {"measurement": "relative viability", "setting": "COR-L 105; first compound 0.01581 µM", "value": 0.473},
      {"measurement": "relative viability", "setting": "COR-L 105; first compound 0.05 µM", "value": 0.438},
      {"measurement": "relative viability", "setting": "COR-L 105; first compound 0.1581 µM", "value": 0.315},
      {"measurement": "relative viability", "setting": "COR-L 105; first compound 0.5 µM", "value": 0.302},
      {"measurement": "relative viability", "setting": "NCI-H322M; first compound 0.005 µM", "value": 0.484},
      {"measurement": "relative viability", "setting": "NCI-H322M; first compound 0.01581 µM", "value": 0.456},
      {"measurement": "relative viability", "setting": "NCI-H322M; first compound 0.05 µM", "value": 0.441},
      {"measurement": "relative viability", "setting": "NCI-H322M; first compound 0.1581 µM", "value": 0.429},
      {"measurement": "relative viability", "setting": "NCI-H322M; first compound 0.5 µM", "value": 0.402},
      {"measurement": "relative viability", "setting": "NCI-H1915; first compound 0.005 µM", "value": 0.438},
      {"measurement": "relative viability", "setting": "NCI-H1915; first compound 0.01581 µM", "value": 0.285},
      {"measurement": "relative viability", "setting": "NCI-H1915; first compound 0.05 µM", "value": 0.251},
      {"measurement": "relative viability", "setting": "NCI-H1915; first compound 0.1581 µM", "value": 0.211},
      {"measurement": "relative viability", "setting": "NCI-H1915; first compound 0.5 µM", "value": 0.18},
      {"measurement": "relative viability", "setting": "NCI-H2085; first compound 0.005 µM", "value": 0.504},
      {"measurement": "relative viability", "setting": "NCI-H2085; first compound 0.01581 µM", "value": 0.552},
      {"measurement": "relative viability", "setting": "NCI-H2085; first compound 0.05 µM", "value": 0.5},
      {"measurement": "relative viability", "setting": "NCI-H2085; first compound 0.1581 µM", "value": 0.26},
      {"measurement": "relative viability", "setting": "NCI-H2085; first compound 0.5 µM", "value": 0.39},
      {"measurement": "relative viability", "setting": "NCI-H441; first compound 0.005 µM", "value": 0.361},
      {"measurement": "relative viability", "setting": "NCI-H441; first compound 0.01581 µM", "value": 0.421},
      {"measurement": "relative viability", "setting": "NCI-H441; first compound 0.05 µM", "value": 0.451},
      {"measurement": "relative viability", "setting": "NCI-H441; first compound 0.1581 µM", "value": 0.242},
      {"measurement": "relative viability", "setting": "NCI-H441; first compound 0.5 µM", "value": 0.199},
      {"measurement": "relative viability", "setting": "NCI-H1666; first compound 0.005 µM", "value": 0.806},
      {"measurement": "relative viability", "setting": "NCI-H1666; first compound 0.01581 µM", "value": 0.728},
      {"measurement": "relative viability", "setting": "NCI-H1666; first compound 0.05 µM", "value": 0.76},
      {"measurement": "relative viability", "setting": "NCI-H1666; first compound 0.1581 µM", "value": 0.646},
      {"measurement": "relative viability", "setting": "NCI-H1666; first compound 0.5 µM", "value": 0.592},
      {"measurement": "relative viability", "setting": "CAL-12T; first compound 0.005 µM", "value": 0.411},
      {"measurement": "relative viability", "setting": "CAL-12T; first compound 0.01581 µM", "value": 0.318},
      {"measurement": "relative viability", "setting": "CAL-12T; first compound 0.05 µM", "value": 0.326},
      {"measurement": "relative viability", "setting": "CAL-12T; first compound 0.1581 µM", "value": 0.22},
      {"measurement": "relative viability", "setting": "CAL-12T; first compound 0.5 µM", "value": 0.22}
    ]}
  ]
}
